Measurements from patent US10526320B2, “Pyrrolidine derivatives as PPAR agonists” (GUANGDONG RAYNOVENT BIOTECH CO., LTD., priority 2016, dated 2020).
Read-outs that look alike come from different tables or passages of the source.

How the values were obtained:
Type in all cases: cell-based
[1] = target: T1, PPAR Alpha (Homo sapiens, UniProt Q07869); test: PathHunter NHR protein interaction / nuclear translocation agonist test, PPAR Alpha; conditions: for EC50: agonist mode, read-out: PPAR Alpha EC50; for Emax: read-out: PPAR Alpha Maximum Activation Response %
T1 sequence (Q07869 1-468): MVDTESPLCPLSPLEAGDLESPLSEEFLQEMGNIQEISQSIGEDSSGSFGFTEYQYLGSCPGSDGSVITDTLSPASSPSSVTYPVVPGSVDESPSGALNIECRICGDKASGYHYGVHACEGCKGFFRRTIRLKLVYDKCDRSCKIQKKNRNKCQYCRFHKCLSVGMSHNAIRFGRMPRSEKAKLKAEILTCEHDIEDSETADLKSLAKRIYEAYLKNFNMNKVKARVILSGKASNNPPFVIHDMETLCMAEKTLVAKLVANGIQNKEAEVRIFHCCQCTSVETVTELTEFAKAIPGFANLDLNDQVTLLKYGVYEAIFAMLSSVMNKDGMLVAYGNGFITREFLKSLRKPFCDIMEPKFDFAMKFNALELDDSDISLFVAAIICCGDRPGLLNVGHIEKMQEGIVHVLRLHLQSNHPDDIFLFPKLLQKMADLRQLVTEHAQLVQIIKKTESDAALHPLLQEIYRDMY

[2] = target: T2, PPAR Delta (Homo sapiens, UniProt Q03181); test: PathHunter NHR protein interaction / nuclear translocation agonist test, PPAR Delta; conditions: for EC50: agonist mode, read-out: PPAR Delta EC50; for Emax: read-out: PPAR Delta Maximum Activation Response %
T2 sequence (Q03181 1-441): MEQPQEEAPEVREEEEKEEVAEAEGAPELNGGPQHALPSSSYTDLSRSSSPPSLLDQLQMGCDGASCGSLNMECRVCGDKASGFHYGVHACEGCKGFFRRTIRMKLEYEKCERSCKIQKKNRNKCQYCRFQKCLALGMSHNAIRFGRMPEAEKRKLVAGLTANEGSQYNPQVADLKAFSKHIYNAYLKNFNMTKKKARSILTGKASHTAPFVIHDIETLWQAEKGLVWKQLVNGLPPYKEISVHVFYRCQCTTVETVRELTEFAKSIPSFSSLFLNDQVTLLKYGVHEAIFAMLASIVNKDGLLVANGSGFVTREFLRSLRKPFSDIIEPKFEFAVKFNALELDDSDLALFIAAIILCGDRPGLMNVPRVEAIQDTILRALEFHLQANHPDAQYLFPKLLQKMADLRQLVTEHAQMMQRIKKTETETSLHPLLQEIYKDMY

[3] = target: T3, PPAR Gamma (Homo sapiens, UniProt P37231); test: PathHunter NHR protein interaction / nuclear translocation agonist test, PPAR Gamma; conditions: for EC50: agonist mode, read-out: PPAR Gamma EC50; for Emax: read-out: PPAR Gamma Maximum Activation Response %
T3 sequence (P37231 1-505): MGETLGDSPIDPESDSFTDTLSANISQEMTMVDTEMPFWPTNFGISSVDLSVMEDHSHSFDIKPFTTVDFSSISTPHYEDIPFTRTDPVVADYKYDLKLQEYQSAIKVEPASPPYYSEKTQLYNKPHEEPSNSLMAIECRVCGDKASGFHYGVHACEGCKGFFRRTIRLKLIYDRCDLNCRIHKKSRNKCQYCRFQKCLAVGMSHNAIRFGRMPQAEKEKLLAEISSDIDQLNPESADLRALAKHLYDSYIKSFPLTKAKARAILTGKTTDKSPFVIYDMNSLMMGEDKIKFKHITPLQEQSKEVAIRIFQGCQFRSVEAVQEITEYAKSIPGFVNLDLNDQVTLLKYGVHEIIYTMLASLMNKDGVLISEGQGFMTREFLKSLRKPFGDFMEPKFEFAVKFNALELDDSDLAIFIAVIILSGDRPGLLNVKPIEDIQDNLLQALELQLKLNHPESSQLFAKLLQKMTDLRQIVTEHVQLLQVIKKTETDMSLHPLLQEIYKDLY

[4] = relative to known PPARδ agonist L-165,041 = 100%
[5] = relative to known PPARγ agonist Troglitazone = 100%

| EC50 [1] | Emax [1] | EC50 [2] | Emax [2, 4] | EC50 [3] | Emax [3, 5] | SMILES | PPAR Alpha Maximum Activation Response % [1] | PPAR Delta Maximum Activation Response % [2] | Emax [3] | Emax [2] |
| --- | --- | --- | --- | --- | --- | --- | --- | --- | --- | --- |
| 0.1 to 0.15 µM | 80 to 100% | 0.1 to 0.15 µM | 80 to 100% | > 0.25 µM | 80 to 100% | CSc1ccc(C(=O)C2CN(C(=O)Oc3ccccc3)CC2Cc2ccc(OC(C)(C)C(=O)O)c(F)c2)cc1 (single isomer, unassigned) [Compound 78] | – | – | – | – |
| < 0.1 µM | 80 to 100% | < 0.1 µM | 80 to 100% | 0.15 to 0.2 µM | 80 to 100% | Cc1cc(CC2CN(C(=O)Oc3ccccc3)CC2C(=O)c2ccc(F)cc2)cc(C)c1OC(C)(C)C(=O)O (single isomer, unassigned) [Compound 69] | – | – | – | – |
| < 0.1 µM | 80 to 100% | < 0.1 µM | 80 to 100% | 0.2 to 0.25 µM | 80 to 100% | Cc1cc(CCC2CN(C(=O)Oc3ccccc3)CC2C(=O)c2ccc(F)cc2)cc(C)c1OC(C)(C)C(=O)O (single isomer, unassigned) [Compound 63] | – | – | – | – |

Further lines, the compound ahead of its results:

| SMILES | EC50 [1] | Emax [1] | EC50 [2] | Emax [2, 4] | EC50 [3] | Emax [3, 5] | PPAR Alpha Maximum Activation Response % [1] | PPAR Delta Maximum Activation Response % [2] | Emax [3] | Emax [2] |
| --- | --- | --- | --- | --- | --- | --- | --- | --- | --- | --- |
| CSc1ccc(C(=O)C2CN(C(=O)Oc3ccccc3)CC2CCc2ccc(OC(C)(C)C(=O)O)cc2)cc1 (single isomer, unassigned) [Compound 80] | < 0.1 µM | 80 to 100% | 0.15 to 0.2 µM | 80 to 100% | > 0.25 µM | 80 to 100% | – | – | – | – |
| CSc1ccc(C(=O)C2CN(C(=O)Oc3ccc(Cl)cc3)CC2c2cccc(OC(C)(C)C(=O)O)c2)cc1 (single isomer, unassigned) [Compound 34] | < 0.1 µM | – | > 0.25 µM | – | > 0.25 µM | – | I (key: 100% ≥ I ≥ 80%; 80% ≥ II ≥ 50%; III < 50%) | III (key: 100% ≥ I ≥ 80%; 80% ≥ II ≥ 50%; III < 50%) | 80 to 100% | – |
| CSc1ccc(C(=O)C2CN(C(=O)Oc3ccccc3)CC2Cc2ccc(OC(C)(C)C(=O)O)cc2)cc1 (single isomer, unassigned) [Compound 76] | 0.1 to 0.15 µM | 80 to 100% | 0.1 to 0.15 µM | 80 to 100% | > 0.25 µM | 80 to 100% | – | – | – | – |
| CSc1ccc(C(=O)C2CN(C(=O)Oc3ccc(Br)cc3)CC2c2cc(C)c(OC(C)(C)C(=O)O)c(C)c2)cc1 (centres unmarked) [Compound 46] | < 0.1 µM | 80 to 100% | < 0.1 µM | – | > 0.25 µM | – | – | – | 80 to 100% | 80 to 100% |
| COC(=O)N1CC(CCc2cc(C)c(OC(C)(C)C(=O)O)c(C)c2)C(C(=O)c2ccc(SC)cc2)C1 (single isomer, unassigned) [Compound 57] | < 0.1 µM | 80 to 100% | < 0.1 µM | – | 0.2 to 0.25 µM | – | – | – | 50 to 80% | 50 to 80% |
| CSc1ccc(C(=O)C2CN(C(=O)Oc3ccccc3)CC2CCc2ccc(OC(C)(C)C(=O)O)c(F)c2)cc1 (single isomer, unassigned) [Compound 82] | < 0.1 µM | 80 to 100% | 0.1 to 0.15 µM | 80 to 100% | 0.2 to 0.25 µM | 80 to 100% | – | – | – | – |
| Cc1cc(CC[C@H]2CN(C(=O)Oc3ccccc3)C[C@@H]2C(=O)c2ccc(S(C)(=O)=O)cc2)cc(C)c1OC(C)(C)C(=O)O (racemic) [Compound 68] | – | 80 to 100% | > 0.25 µM | – | > 0.25 µM | 80 to 100% | – | – | – | 80 to 100% |
